Assay results reported in patent publication US7807673B2, “2-pyrimidinyl pyrazolopyridine ErbB kinase inhibitors” (GlaxoSmithKline LLC, priority 2005, dated 2010).
pIC50: −log10 of the molar value.

Tests used:
[1] = tested on: BT474 and HN5 tumor cell lines; test: Celltiter Glo growth inhibition assay (cellular Method B); assay type: cell-based; details: Homo sapiens, BT-474, 72 h; Table 2, Method B Celltiter Glo, 3 days; class over BT474 and HN5;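 note: class counts the more potent of the two cell lines (BT474 or HN5)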
Description: (§1) Human breast tumor cells (BT474) were cultured in RPMI, (Invitrogen, 22400) containing 10% fetal bovine serum (FBS). Human head and neck tumor cells (HN5) were cultured in low glucose DMEM (Invitrogen, 12320) containing 10% FBS. Human colon tumor cells (Colo205) were cultured in DMEM (Invitrogen, 10564) containing 10% FBS. All cell lines were maintained at 37° C. in a humidified 5% CO2, 95% air incubator. Cells were harvested using trypsin/EDTA, counted using a haemocytometer, and plated in 30 microliters of the appropriate media described above, at the following densities, in a half area, black-walled, 96-well tissue culture plate (Corning 3882): BT474 3,000 cells/well, HN5 500 cells/well and Colo205 cells, 3,000 cells/well. The next day, compounds were diluted in DMEM containing 100 mg/ml gentamicin, from 10 mM stock solutions in DMSO. 30 microliters/well of these dilutions were added to the 30 microliters/well of media currently on the cell plates. Medium containing 0.6% DMSO was added to control wells. The final concentration of DMSO in all wells was 0.3%. Cells were incubated at 37° C., 5% CO2 for 3 days. Cell biomass was estimated using Celltiter Glo (Promega G7571). Briefly, plates were removed from the incubator and allowed to equilibrate to rt for 30 minutes. 60 microliters of Celltiter Glo reagent were added to each well of the treated cells and plates were shaken on an orbital plate shaker for 2 min. Plates were incubated without shaking for 30 more min and read in a luminometer with an integration time of 0.5 seconds per well. Percent inhibition of cell growth was calculated relative to vehicle treated control wells. Concentration of compound that inhibits 50% of vehicle control cell growth (IC50) was interpolated using nonlinear regression (Levenberg-Marquardt) and the equation, y=Vmax*(1−(x/(K+x)))+Y2, where “K” was equal to the IC50.

Colo205 tumor cell lines = test: as above; assay type: cell-based; details: Homo sapiens, COLO 205, 72 h, Table 3, Method B Celltiter Glo, 3 days
Description: as §1

ErbB2 or EGFR = biological target: T1, ErbB2 or EGFR; test: ErbB enzyme substrate phosphorylation assay (HTRF), Method B (enzyme pre-incubated with compound 1 hour); assay type: biochemical; details: Table 1, enzyme Method B: enzyme mix incubated with compound 1 hour at 20° C., reaction started with substrate mix; class over ErbB2 or EGFR
T1 construct: enzymes purified from a baculovirus expression system
Description: Compounds of the present invention were tested for EGFR, ErbB-2, and ErbB-4 protein tyrosine kinase inhibitory activity in substrate phosphorylation assays using enzymes purified from a baculovirus expression system. Reagent production was conducted essentially as described in Brignola, P. S., et al, (2002) J. Biol. Chem. 277(2): 1576-1585.
The method measures the ability of the isolated enzyme to catalyse the transfer of the gamma-phosphate from ATP onto the tyrosine residue of a biotinylated synthetic peptide referenced “Peptide C” in Brignola, P. S., et al, (2002) J. Biol. Chem. 277(2):1576-1585. The extent of tyrosine phosphorylation was measured using an anti-phosphotyrosine antibody, and quantified by homogenous time-resolved fluorescence (HTRF).
Reactions were performed in black 384-well polystyrene flat-bottom plates in a final volume of 20 μl. Assays were performed by adding 10 μl of each of the following solutions, substrate Mix and enzyme mix: The Substrate mix contained 100 mM 3-[N-morpholino]propanesulfonic acid (MOPS) (pH 7.5), 2 mM MnCl2, 20 μM ATP, 0.01% Tween-20, 0.1 mg/mL (BSA), 0.8 uM peptide substrate, and 1 mM dithiothreitol. The enzyme mix contained 100 mM MOPS (pH7.5); 0.01% Tween-20; 0.1 mg/mL BSA, and either 0.8 nM EGFR, 10 nM ErbB2, or 1 nM ErbB4
During the course of these studies, two separate methods have been used to measure the potency of compounds. In Method A, the substrate mix was added to the compound plates first, then the reaction was started by adding the enzyme mix. In Method B, the enzyme mix was added to the compound plates and the plates were incubated at 20° C. for 1 hour. The reactions were then started by adding the substrate mix.
After initiating the reaction with either method describe above, the reactions were allowed to proceed for 90 minutes at 20° C. The reactions were then terminated by the addition of 20 μl 100 mM EDTA to each well. 40 μl/well of HTRF detection mix were added to the assay plates. The final concentrations of the detection reagents were: 100 mM HEPES (pH7.5), 0.1 mg/mL BSA, 15 nM streptavidin-labeled allophycocyanin (PerkinElmer), and 1 nM europium-labeled anti-phosphotyrosine antibody (PerkinElmer). Assay plates were left unsealed and were counted in a Wallac Multilabel Counter 1420 (PerkinElmer).
Compounds under analysis were dissolved in Me2SO to 1.0 mM and serially diluted 1 to 3 with Me2SO through twelve dilutions. 1 μl of each concentration was transferred to the corresponding well of an assay plate. This creates a final compound concentration range from 0.00027 to 47.6 μM.
The data for dose responses were plotted as % Inhibition calculated with the data reduction formula 100*(1−(U1−C2)/(C1−C2)) versus concentration of compound where U is the unknown value, C1 is the average control value obtained for 4.76% DMSO, and C2 is the average control value obtained for 0.035 M EDTA. Data were fitted with a curve described by: y=((Vmax*x)/(K+x))+Y2 where Vmax is the upper asymptote, Y2 is the Y intercept, and K is the IC50. The results for each compound were recorded as pIC50s, calculated as follows: pIC50=−Log 10(K)

| SMILES | pIC50 [1] | pIC50 (Colo205 tumor cell lines) | Activity (Method) (ErbB2 or EGFR) |
| --- | --- | --- | --- |
| CN(C)Cc1cccc(Nc2nccc(-c3c(-c4cccc(NC(=O)Cc5cccs5)c4)nn4ccccc34)n2)c1 [Example 7, N-(3-{3-[2-({3-[(Dimethylamino)methyl]phenyl}amino)-4-pyrimidinyl]pyrazolo[1,5-a]pyridin-2-yl}phenyl)-2-(2-thienyl)acetamide] | 6.00 to 7.00 | 6.00 to 7.00 | +++ (B) (at least one pIC50 measurement of greater than 7 against either ErbB2 or EGFR) |
| CN1CCc2ccc(Nc3nccc(-c4c(-c5cccc(NC(=O)Cc6cccs6)c5)nn5ccccc45)n3)cc2C1 [Example 8] |  |  | +++ (B) (at least one pIC50 measurement of greater than 7 against either ErbB2 or EGFR) |
| Cc1ncoc1-c1cccc(Nc2nccc(-c3c(-c4cccc(NC(=O)Cc5cccs5)c4)nn4ccccc34)n2)c1 [Example 52, N-{3-[3-(2-{[3-(4-methyl-1,3-oxazol-5-yl)phenyl]amino}pyrimidin-4-yl)pyrazolo[1,5-a]pyridin-2-yl]phenyl}-2-(2-thienyl)acetamide] | 6.00 to 7.00 | 6.00 to 7.00 |  |
| Cc1c(Nc2nccc(-c3c(-c4ccc(F)c(NC(=O)Cc5cccs5)c4)nn4ccccc34)n2)cccc1OCCN(C)C [Example 60, N-[5-(3-{2-[(3-{[2-(Dimethylamino)ethyl]oxy}-2-methylphenyl)amino]-4-pyrimidinyl}pyrazolo[1,5-a]pyridin-2-yl)-2-fluorophenyl]-2-(2-thienyl)acetamide] |  |  | ++ (B) (at least one pIC50 measurement greater than 6 against either ErbB2 or EGFR but no measurement greater than pIC50 of 7) |
| CN1CCc2ccc(Nc3nccc(-c4c(-c5ccc(F)c(NC(=O)Cc6cccs6)c5)nn5ccccc45)n3)cc2C1 [Example 63, N-[2-Fluoro-5-(3-{2-[(2-methyl-1,2,3,4-tetrahydro-7-isoquinolinyl)amino]-4-pyrimidinyl}pyrazolo[1,5-a]pyridin-2-yl)phenyl]-2-(2-thienyl)acetamide] |  |  | +++ (B) (at least one pIC50 measurement of greater than 7 against either ErbB2 or EGFR) |
| COc1ccc(-c2nn3ccccc3c2-c2ccnc(Nc3cccc(OCCN(C)C)c3C)n2)cc1NC(=O)Cc1cccs1 [Example 64, N-[5-(3-{2-[(3-{[2-(Dimethylamino)ethyl]oxy}-2-methylphenyl)amino]-4-pyrimidinyl}pyrazolo[1,5-a]pyridin-2-yl)-2-(methyloxy)phenyl]-2-(2-thienyl)acetamide] |  |  | + (B) (no pIC50 measurement greater than 6 against either ErbB2 or EGFR) |
| COc1ccc(-c2nn3ccccc3c2-c2ccnc(Nc3cccc(OCCN(C)C)c3)n2)cc1NC(=O)Cc1cccs1 [Example 65, N-[5-(3-{2-[(3-{[2-(Dimethylamino)ethyl]oxy}phenyl)amino]-4-pyrimidinyl}pyrazolo[1,5-a]pyridin-2-yl)-2-(methyloxy)phenyl]-2-(2-thienyl)acetamide] |  |  | + (B) (no pIC50 measurement greater than 6 against either ErbB2 or EGFR) |
| COc1ccc(-c2nn3ccccc3c2-c2ccnc(Nc3cc(OCCN(C)C)ccc3C)n2)cc1NC(=O)Cc1cccs1 [Example 66, N-[5-(3-{2-[(5-{[2-(Dimethylamino)ethyl]oxy}-2-methylphenyl)amino]-4-pyrimidinyl}pyrazolo[1,5-a]pyridin-2-yl)-2-(methyloxy)phenyl]-2-(2-thienyl)acetamide] |  |  | + (B) (no pIC50 measurement greater than 6 against either ErbB2 or EGFR) |
| COc1ccc2c(-c3ccnc(Nc4cccc(OCCN(C)C)c4)n3)c(-c3cccc(NC(=O)C4(c5ccccc5)CC4)c3)nn2c1 [Example 67, N-{3-[3-{2-[(3-{[2-(Dimethylamino)ethyl]oxy}phenyl)amino]-4-pyrimidinyl}-6-(methyloxy)pyrazolo[1,5-a]pyridin-2-yl]phenyl}-1-phenylcyclopropanecarboxamide] |  |  | ++ (B) (at least one pIC50 measurement greater than 6 against either ErbB2 or EGFR but no measurement greater than pIC50 of 7) |
| COc1ccc2c(-c3ccnc(Nc4cccc(OCCN(C)C)c4)n3)c(-c3cccc(NC(=O)/C=C/c4ccccc4)c3)nn2c1 [Example 68, (2E)-N-{3-[3-{2-[(3-{[2-(Dimethylamino)ethyl]oxy}phenyl)amino]-4-pyrimidinyl}-6-(methyloxy)pyrazolo[1,5-a]pyridin-2-yl]phenyl}-3-phenyl-propenamide] |  |  | +++ (B) (at least one pIC50 measurement of greater than 7 against either ErbB2 or EGFR) |
| COc1ccc2c(-c3ccnc(Nc4cccc(OCCN(C)C)c4)n3)c(-c3cccc(NC(=O)NCc4ccc(F)cc4)c3)nn2c1 [Example 70, N-{3-[3-{2-[(3-{[2-(Dimethylamino)ethyl]oxy}phenyl)amino]-4-pyrimidinyl}-6-(methyloxy)pyrazolo[1,5-a]pyridin-2-yl]phenyl}-N-[(4-fluorophenyl)methyl]urea] |  |  | +++ (B) (at least one pIC50 measurement of greater than 7 against either ErbB2 or EGFR) |
| Cc1ccc2c(-c3ccnc(Nc4cccc(CN5CCCC5)c4)n3)c(-c3cccc(NC(=O)Cc4cccs4)c3)nn2c1 [Example 71, N-{3-[6-Methyl-3-(2-{[3-(1-pyrrolidinylmethyl)phenyl]amino}-4-pyrimidinyl)pyrazolo[1,5-a]pyridin-2-yl]-phenyl}-2-(2-thienyl)acetamide] |  |  | +++ (B) (at least one pIC50 measurement of greater than 7 against either ErbB2 or EGFR) |
| Cc1ccc2c(-c3ccnc(Nc4cccc(OCCN(C)C)c4)n3)c(-c3cccc(NC(=O)Cc4cccs4)c3)nn2c1 [Example 72, N-[3-(3-{2-[(3-{[2-(Dimethylamino)ethyl]oxy}phenyl)amino]-4-pyrimidinyl}-6-methylpyrazolo[1,5-a]pyridin-2-yl)phenyl]-2-(2-thienyl)acetamide] |  |  | +++ (B) (at least one pIC50 measurement of greater than 7 against either ErbB2 or EGFR) |
| CC(=O)N1CCN(c2ccc(Nc3nccc(-c4c(-c5cccc(NC(=O)Cc6cccs6)c5)nn5cc(C)ccc45)n3)cc2)CC1 [Example 73, N-{3-[3-(2-{[4-(4-Acetyl-1-piperazinyl)phenyl]amino}-4-pyrimidinyl)-6-methylpyrazolo[1,5-a]pyridin-2-yl]phenyl}-2-(2-thienyl)acetamide] |  |  | +++ (B) (at least one pIC50 measurement of greater than 7 against either ErbB2 or EGFR) |
